The source of these data is patent US20230257372A1 (CHONG KUN DANG PHARMACEUTICAL CORP., priority 2020, published 2023).

Where two headings read alike, the source gives them in different places.

The target in one assay is T1, human recombinant HDAC1 (Homo sapiens, UniProt Q13547).
T1 construct: purchased Enzo Life Science, Inc. BML-SE456
Nature of the assay: HDAC1 enzyme activity inhibition (HDAC Fluorimetric Drug Discovery Kit). Format: biochemical. The note with it: read-out: HDAC1. The procedure, abridged:
(§1)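 Fluorimetric deacetylase read-out. 5-fold compound dilutions; […] enzyme, 10 μM substrate; 30° C, 60 min; developer 30 min.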

For another assay, the target named is T2, human recombinant HDAC6 (Homo sapiens, UniProt Q9UBN7).
T2 construct: purchased Calbiochem Inc. 382180
T2 sequence (Q9UBN7 1-1215): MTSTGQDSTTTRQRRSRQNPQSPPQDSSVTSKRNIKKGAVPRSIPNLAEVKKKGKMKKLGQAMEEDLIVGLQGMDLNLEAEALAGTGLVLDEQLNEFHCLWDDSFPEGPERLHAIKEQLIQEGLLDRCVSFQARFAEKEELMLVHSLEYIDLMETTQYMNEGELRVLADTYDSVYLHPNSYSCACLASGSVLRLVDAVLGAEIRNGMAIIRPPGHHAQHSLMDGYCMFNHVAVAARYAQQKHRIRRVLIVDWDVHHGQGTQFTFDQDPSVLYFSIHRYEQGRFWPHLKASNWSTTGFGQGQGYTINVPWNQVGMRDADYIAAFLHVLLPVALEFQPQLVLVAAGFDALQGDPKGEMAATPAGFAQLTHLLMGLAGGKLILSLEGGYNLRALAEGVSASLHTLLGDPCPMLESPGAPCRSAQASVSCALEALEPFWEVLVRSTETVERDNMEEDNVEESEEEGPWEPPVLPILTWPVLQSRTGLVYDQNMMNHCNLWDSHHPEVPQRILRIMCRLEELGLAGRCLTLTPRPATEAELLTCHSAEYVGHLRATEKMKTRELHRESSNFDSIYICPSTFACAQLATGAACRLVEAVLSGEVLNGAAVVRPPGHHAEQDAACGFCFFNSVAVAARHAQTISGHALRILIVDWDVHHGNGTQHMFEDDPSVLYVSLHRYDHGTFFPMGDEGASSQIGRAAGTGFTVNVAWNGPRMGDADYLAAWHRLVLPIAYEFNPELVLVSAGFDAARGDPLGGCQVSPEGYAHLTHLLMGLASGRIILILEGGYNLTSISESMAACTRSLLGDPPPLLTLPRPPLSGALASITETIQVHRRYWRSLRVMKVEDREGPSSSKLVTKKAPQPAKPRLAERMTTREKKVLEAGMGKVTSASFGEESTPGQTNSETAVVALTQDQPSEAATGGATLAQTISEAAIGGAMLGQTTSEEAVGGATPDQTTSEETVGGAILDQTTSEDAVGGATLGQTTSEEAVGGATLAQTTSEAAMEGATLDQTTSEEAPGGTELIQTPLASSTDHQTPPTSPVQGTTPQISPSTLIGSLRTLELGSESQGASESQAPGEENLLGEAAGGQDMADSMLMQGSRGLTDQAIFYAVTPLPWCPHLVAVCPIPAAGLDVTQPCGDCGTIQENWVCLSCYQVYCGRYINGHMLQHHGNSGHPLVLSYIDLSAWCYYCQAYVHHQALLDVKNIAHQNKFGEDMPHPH
The experiment in a line: HDAC6 enzyme activity inhibition (HDAC Fluorimetric Drug Discovery Kit). It is filed as biochemical. The procedure, abridged:
as §1

For assay [1], the system named is hippocampal neurons from a Sprague-Dawley (SD) rat fetus. The experiment in a line: Effect of HDAC6-specific inhibitor on axonal transport of mitochondria in amyloid-beta treated neurons. As to conditions: transport velocity of mitochondria in neuronal axon after normalization; vehicle = 100%, amyloid beta treatment group = 0%; compound treatment for three hours. It is filed as cell-based. The procedure, abridged: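 Rat E17-18 hippocampal neurons exposed to amyloid-beta fragments […]; after 24 h (day 8 in vitro) compound added for 3 h, mitochondria stained with MitoTracker Red CMXRos. Confocal imaging every 1 s for 1 min gave per-mitochondrion velocity, normalized vehicle = 100%, amyloid-beta = 0%.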

Setting [2] is: human recombinant HDAC1, IC50 calculated with GraphPad Prism.
The mark [3] stands for this setting: human recombinant HDAC6, IC50 calculated with GraphPad Prism.
The mark [4] stands for this setting: human recombinant HDAC1, Fluor de Lys substrate, 30° C. 60 minutes.
Where [5] appears, read: human recombinant HDAC6, same protocol as HDAC1.

T1 sequence (Q13547 whole entry): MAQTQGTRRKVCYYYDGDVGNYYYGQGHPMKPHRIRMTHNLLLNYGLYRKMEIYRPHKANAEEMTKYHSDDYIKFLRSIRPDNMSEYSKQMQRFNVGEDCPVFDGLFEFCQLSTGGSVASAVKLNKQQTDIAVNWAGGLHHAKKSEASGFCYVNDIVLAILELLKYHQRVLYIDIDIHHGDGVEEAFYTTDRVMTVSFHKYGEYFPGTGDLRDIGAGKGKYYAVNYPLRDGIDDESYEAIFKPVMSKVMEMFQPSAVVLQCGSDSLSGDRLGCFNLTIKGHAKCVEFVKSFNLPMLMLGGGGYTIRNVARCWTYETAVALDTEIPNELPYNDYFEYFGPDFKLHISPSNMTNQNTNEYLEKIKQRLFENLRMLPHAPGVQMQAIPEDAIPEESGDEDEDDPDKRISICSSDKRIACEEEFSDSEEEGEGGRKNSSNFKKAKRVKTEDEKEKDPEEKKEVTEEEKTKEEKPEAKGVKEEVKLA

On to `Fc1ccccc1-c1cn(Cc2ccc(-c3nnc(C(F)F)o3)cn2)nn1` [Compound 3853, 2-(difluoromethyl)-5-(6-((4-(2-fluorophenyl)-1H-1,2,3-triazol-1-yl)methyl)pyridin-3-yl)-1,3,4-oxadiazole], for which the IC50 on human recombinant HDAC1 (setting [2]) was more than 50000 nM; on human recombinant HDAC6 (setting [3]), 31 nM. The “HDAC6 selectivity (fold)” value at human recombinant HDAC6 (HDAC1 IC50 / HDAC6 IC50) came to 1612 fold. Besides, the “Velocity distribution (%)” value in assay [1] is “** (**, 50%˜100%)”.

As for `CC1CCN(Cc2c[nH]c3cc(-c4cn(Cc5ccc(-c6nnc(C(F)F)o6)cc5F)nn4)ccc23)CC1` [Compound 4110, 2-(difluoromethyl)-5-(3-fluoro-4-((4-(3-((4-methylpiperidin-1-yl)methyl)-1H-indol-6-yl)-1H-1,2,3-triazol-1-yl)methyl)phenyl)-1,3,4-oxadiazole], the IC50 at human recombinant HDAC1 (setting [2]) was more than 50000 nM; on human recombinant HDAC6 (setting [3]) it was 16.5 nM. Besides, the “HDAC6 selectivity (fold)” value at human recombinant HDAC6 (HDAC1 IC50 / HDAC6 IC50) is reported as 3030 fold. Moreover, the “Velocity distribution (%)” value in assay [1] is “** (**, 50%˜100%)”.

With `FC(F)c1nnc(-c2ccc(Cn3cc(-c4ccc5c(CN6CCOCC6)c[nH]c5c4)nn3)cc2)o1` [Compound 4134, 4-((6-(1-(4-(5-(difluoromethyl)-1,3,4-oxadiazol-2-yl)benzyl)-1H-1,2,3-triazol-4-yl)-1H-indol-3-yl)methyl)morpholine], the IC50 on human recombinant HDAC1 (setting [2]) was more than 50000 nM; at human recombinant HDAC6 (setting [3]), 16.5 nM. The “HDAC6 selectivity (fold)” value on human recombinant HDAC6 (HDAC1 IC50 / HDAC6 IC50) stood at 3030 fold. Also, the “Velocity distribution (%)” value in assay [1] is on record as “** (**, 50%˜100%)”.

Turning to `Fc1cc(-c2nnc(C(F)F)o2)ccc1Cn1cc(-c2ccccc2)nn1` [Compound 3658, 2-(difluoromethyl)-5-(3-fluoro-4-((4-phenyl-1H-1,2,3-triazol-1-yl)methyl)phenyl)-1,3,4-oxadiazole], the figures for the IC50 on human recombinant HDAC1 (setting [2]) and at human recombinant HDAC6 (setting [3]) were more than 50000 nM and 57.9 nM, respectively. Also, the “HDAC6 selectivity (fold)” value on human recombinant HDAC6 (HDAC1 IC50 / HDAC6 IC50) is listed as 863 fold. In assay [1], the “Velocity distribution (%)” value is listed as “* (*, 0%˜50%)”.

Take `FC(F)c1nnc(-c2ccc(Cn3cc(-c4cccc5[nH]ncc45)nn3)cc2)o1` [Compound 4347, 2-(4-((4-(1H-indazol-4-yl)-1H-1,2,3-triazol-1-yl)methyl)phenyl)-5-(difluoromethyl)-1,3,4-oxadiazole]: the IC50 on human recombinant HDAC1 (setting [2]) is more than 50000 nM; at human recombinant HDAC6 (setting [3]) it was 7.3 nM. For the same compound, the “HDAC6 selectivity (fold)” value on human recombinant HDAC6 (HDAC1 IC50 / HDAC6 IC50) amounted to 6849 fold. Further, the “Velocity distribution (%)” value in assay [1] is reported as “* (*, 0%˜50%)”.

As to `FC(F)c1nnc(-c2ccc(Cn3cc(-c4cncc(Br)c4)nn3)nc2)o1` [Compound 4182, 2-(6-((4-(5-bromopyridin-3-yl)-1H-1,2,3-triazol-1-yl)methyl)pyridin-3-yl)-5-(difluoromethyl)-1,3,4-oxadiazole], the IC50 was more than 50000 nM at human recombinant HDAC1 (setting [2]) and 22.2 nM at human recombinant HDAC6 (setting [3]). For the same compound, the “HDAC6 selectivity (fold)” value on human recombinant HDAC6 (HDAC1 IC50 / HDAC6 IC50) is reported as 2252 fold. In assay [1], the “Velocity distribution (%)” value is given as “** (**, 50%˜100%)”.

For `CN1CCN(c2cccc(-c3cn(Cc4ccc(-c5nnc(C(F)F)o5)cc4F)nn3)c2)CC1` [Compound 4337, 2-(difluoromethyl)-5-(3-fluoro-4-((4-(3-(4-methylpiperazin-1-yl)phenyl)-1H-1,2,3-triazol-1-yl)methyl)phenyl)-1,3,4-oxadiazole], the IC50 at human recombinant HDAC1 (setting [2]) is more than 50000 nM; at human recombinant HDAC6 (setting [3]), 23.9 nM. For the same compound, the “HDAC6 selectivity (fold)” value at human recombinant HDAC6 (HDAC1 IC50 / HDAC6 IC50) was found to be 2092 fold. Besides, the “Velocity distribution (%)” value in assay [1] is given as “*** (***, >100%)”.

On to `Cn1ccc2ccc(-c3cn(Cc4ccc(-c5nnc(C(F)F)o5)cn4)nn3)cc21` [Compound 3914, 2-(difluoromethyl)-5-(6-((4-(1-methyl-1H-indol-6-yl)-1H-1,2,3-triazol-1-yl)methyl)pyridin-3-yl)-1,3,4-oxadiazole], for which the IC50 at human recombinant HDAC1 (setting [2]) is more than 50000 nM; at human recombinant HDAC6 (setting [3]), 43.2 nM. Further, the “HDAC6 selectivity (fold)” value at human recombinant HDAC6 (HDAC1 IC50 / HDAC6 IC50) is given as 1190 fold. For the same compound, the “Velocity distribution (%)” value in assay [1] is listed as “* (*, 0%˜50%)”.

Regarding `Fc1cc(-c2nnc(C(F)F)o2)ccc1Cn1cc(-c2ccc(CN3CCC3)cn2)nn1` [Compound 17532, 2-(4-((4-(5-(azetidin-1-yl-methyl)pyridin-2-yl)-1H-1,2,3-triazol-1-yl)methyl)-3-fluorophenyl)5-(difluoromethyl)-1,3,4-oxadiazole], the IC50 on human recombinant HDAC1 (setting [4]) was more than 50000 nM; on human recombinant HDAC6 (setting [5]), 23.8 nM. For the same compound, on human recombinant HDAC6 (HDAC6 over HDAC1), the “HDAC6 selectivity (fold)” value was 2100 fold. Moreover, the “Velocity distribution (%)” value in assay [1] is listed as “*** (***, >100%)”.

With `FC(F)c1nnc(-c2ccc(Cn3cc(-c4ccc5[nH]ccc5c4)nn3)nc2)o1` [Compound 4072, 2-(6-((4-(1H-indol-5-yl)-1H-1,2,3-triazol-1-yl)methyl)pyridin-3-yl)-5-(difluoromethyl)-1,3,4-oxadiazole], the figures for the IC50 on human recombinant HDAC1 (setting [2]) and on human recombinant HDAC6 (setting [3]) were more than 50000 nM and 10.3 nM, respectively. On human recombinant HDAC6 (HDAC1 IC50 / HDAC6 IC50), the “HDAC6 selectivity (fold)” value is given as 4854 fold. Also, the “Velocity distribution (%)” value in assay [1] is “** (**, 50%˜100%)”.

For the compound `CN(C)Cc1ccc(-c2cn(Cc3ccc(-c4nnc(C(F)F)o4)cc3F)nn2)nc1` [Compound 17534, 1-(6-(1-(4-(5-(difluoromethyl)-1,3,4-oxadiazol-2-yl)-2-fluorobenzyl)-1H-1,2,3-triazol-4-yl)pyridin-3-yl)-N,N-dimethylmethanamine], the IC50 at human recombinant HDAC1 (setting [4]) is more than 50000 nM; at human recombinant HDAC6 (setting [5]), 37.9 nM. The “HDAC6 selectivity (fold)” value on human recombinant HDAC6 (HDAC6 over HDAC1) worked out at 1319 fold. Also, in assay [1], the “Velocity distribution (%)” value was “*** (***, >100%)”.
